Key:
VSM cells = assay: thymidine uptake into VSM cells; format: cell-based, human; settings: 12 μM CDU vs DMSO vehicle, seconds to minutes, FIG. 1e
Experimental: FIG. 1e. CDU at the indicated concentrations was added to non-serum-starved cells and uptake of thymidine into the cells was assessed at the indicated times after its addition as described in Example 1. Error bars represent SD; *p<0.05 compared to (for FIGS. 1a and 1d) PDGF alone or (for FIG. 1b) serum alone or (for FIG. 1e) DMSO. Data shown are representative of at least two independent experiments.
Thymidine Uptake. To quantify thymidine uptake, 1.73×10^4 cells were distributed per well in a 24-well plate. […] The media was then adjusted to […] ^3H-methyl-thymidine (1 mCi/mL, 25 Ci/mmol, Amersham-Pharmacia). At the indicated times, medium was aspirated, the cells were washed three times with ice-cold PBS, and then incubated in 500 μL 1 M NaOH for 20 min. The mixture was neutralized with 0.5 mL 1 M HCl and diluted into scintillation fluid for liquid scintillation counting.

HT-29 colon cancer cells = assay: MTT assay HT-29; format: cell-based; settings: up to 40 μM
ERK42/44 phosphorylation = assay: Western blot phospho-MAPK in VSM cells; format: cell-based, human; settings: 10 μM, 4 h after PDGF-BB, FIG. 6
Experimental: Human VSM cells were grown to 80-90% confluence and serum-starved as in FIG. 1. Four hours after stimulation with PDGF-BB (30 ng/ml) in the presence or absence of CDU (10 μM), the cells were lysed and equal protein quantities were electrophoresed and immunoblotted with phospho-MAPK antibody. Data shown are representative of three independent experiments Western Blots. After treatment with appropriate compounds for the indicated times, cells were lysed, protein concentrations were determined by the Lowry method, and equal protein quantities were electrophoresed and Western blotted.

human VSM cells = assay: [3H]thymidine incorporation into DNA, human VSM cells; format: cell-based; settings: for inhibition of DNA synthesis ([3H]thymidine incorporation): CDU 1.0 to 20 μM
Experimental: Human VSM cells were grown to 80-90% confluence and serum-starved (except where indicated) for 1 day.
FIG. 1a. Immediately following PDGF-BB (30 ng/ml) stimulation, CDU or DMSO vehicle (as a control, indicated on chart as “cont”) was added at the concentrations indicated. After 18 h, thymidine incorporation into DNA was assessed as described in Example 1.
FIG. 1b. Human VSM cells grown and challenged as in FIG. 1a, but the cells were stimulated with 10% serum rather than with PDGF-BB.
Human VSM cells were grown to 80-90% confluence and serum-starved as in FIG. 1. PDGF-BB (30 ng/ml) was added to all but control wells, followed immediately by the addition of mixed EETs and/or CDU at the concentrations indicated of total EETs. [^3H]Thymidine was added for the last 6 h of incubation, and its incorporation into DNA was assessed as described in Materials and Methods. Error bars represent SD; *p<0.05 compared to PDGF alone. Data shown are representative of two independent experiments.
Human VSM cells were grown to 80-90% confluence and serum-starved as in FIG. 1. PDGF-BB (30 ng/ml) was added to all but control wells and, at the times indicated after PDGF addition, CDU (10 μM) was added. At time=0, CDU and PDGF were added simultaneously. [^3H]Thymidine was added for the last 6 h of incubation and its incorporation into DNA was assessed as described in Example 1. Error bars represent SD; *p<0.05 compared to PDGF alone. Data shown are representative of three independent experiments.
Cell Culture. Human aortic smooth muscle cells were obtained from Clonetics (San Diego Calif.) at passage 3 and were maintained in MCBD 131 media supplemented with 2.5% FBS, 5 mg/L bovine insulin, 2 ug/L human recombinant EGF, 1 ug/L human recombinant PDGF-BB (“PDGF” is platelet derived growth factor, which is composed of a dimer of two chains, the A chain and the B chain, “PDGF-BB is a 24.3 kD homodimer of two B chains), 100 u/ml of penicillin, 100 u/ml streptomycin, and 2.5 ug/ml amphotericin B. The cells were growth-arrested by placing them in quiescence medium containing MCDB 131 medium, 20 mM HEPES (pH 7.4), 5 mg/ml transferrin, 0.5 mg/ml BSA, 50 U/ml penicillin, 50 U/ml streptomycin, and 2.5 ug/ml amphotericin B. Quiescence medium was changed daily for 1-2 days before each experiment. HL-60 cells were obtained from ATCC or from D. Hyde (UC Davis). HL-60 cells were cultured at cell densities between 2×10^5 and 8×10^5 cells/mL in RPMI-1640 (Mediatech) supplemented with 10% fetal calf serum.
Proliferation Assays. [^3H]thymidine incorporation assays were performed. […] At the indicated times, the number of cells in the plate was calculated by subjecting the cells to trypsinization and the cell density quantitated by light microscopy using a hemocytometer.

A549 lung cancer cells = assay: MTT assay A549; format: cell-based; settings: up to 40 μM
[1] = molecular target: soluble epoxide hydrolase (sEH); settings: cited from earlier work

CCCCCCCCCCCCNC(=O)NC1CCCCC1 [CDU, 1-cyclohexyl-3-dodecyl urea]
cellular uptake of thymidine (VSM cells): occurs to a similar extent
toxicity, MTT assay (HT-29 colon cancer cells): no toxicity observed
PDGF-stimulated ERK42/44 phosphorylation (ERK42/44 phosphorylation): no change
time of CDU addition after PDGF with most profound inhibition (human VSM cells; 10 μM CDU, PDGF-BB 30 ng/ml, FIG. 5): 4 h
inhibition of DNA synthesis ([3H]thymidine incorporation) (human VSM cells; 10% serum stimulated, FIG. 1b): dose-dependent inhibition of DNA synthesis
inhibition of DNA synthesis ([3H]thymidine incorporation) (human VSM cells; PDGF-BB (30 ng/ml) stimulated, 18 h, FIG. 1a): dose-dependent inhibition of DNA synthesis
PDGF-stimulated [3H]thymidine incorporation (human VSM cells; PDGF-BB, EETs 5 to 10 μM total, CDU 2.5 and 10 μM, separately or together, FIG. 3): inhibition of PDGF-stimulated [^3H]thymidine incorporation
toxicity, MTT assay (A549 lung cancer cells): no toxicity observed
Ki [1]: 20 ± 2 nM

From patent US20030139469A1, “Use of inhibitors of soluble epoxide hydrolase to inhibit vascular smooth muscle cell proliferation” (THE REGENTS OF THE UNIVERSITY OF CALIFORNIA, priority 2002, published 2003)
